Drawing on patent US5698538A, “Boronic acid and ester inhibitors of thrombin” (The DuPont Merck Pharmaceutical Company, priority 1996, dated 1997), this text covers Ki for 32 compounds.

One may read the pKi as the Ki on a negative log10 scale, so that one unit is a factor of ten.

What all share (format): biochemical
One experiment addresses T1, human thrombin (Homo sapiens, UniProt P00734).
T1 construct: purchased Enzyme Research Laboratories, South Bend, Ind
Put plainly: Inhibition of human thrombin (chromogenic substrate S2238), inhibitory constant Ki. To be noted: 0.2-0.5 nM human thrombin, S2238, pH 7.5, 30 minutes; read-out: Ki values for inhibition of Serine Proteases: Thrombin. The method, then:
(§1) The effectiveness of compounds of the present invention as inhibitors of blood coagulation proteases was determined using purified human proteases and synthetic substrates following procedures similar to those described in Kettner et al. (1990).
(§2) For these assays, the rate of enzymatic (thrombin, Factor Xa, and Factor VIIa) hydrolysis of chromogenic substrates (S2238 (H-D-Phe-Pip-Arg-pNA), S2222, and S2288, respectively; Kabi Pharmacia, Franklin, Ohio.) was measured both in the absence and presence of compounds of the present invention. […] A decrease in the rate of absorbance change at 405 nm in the presence of inhibitor is indicative of enzyme inhibition. The results of this assay are expressed as inhibitory constant, Ki.
(§3) Thrombin and Xa determinations were made in 0.10M sodium phosphate buffer, pH 7.5, containing 0.20M NaCl, and 0.5% PEG 8000. VIIa determinations were made in 0.05M tris buffer, pH 7.6, containing 0.10M NaCl, 4 mM CaCl2, and 0.1% bovine serum albumin. The Michaelis constant, Km, for substrate hydrolysis was determined at 5° C. using the method of Lineweaver and Burk.
(§4) Values of Ki were determined by allowing 0.2-0.5 nM human thrombin or human factor Xa (Enzyme Research Laboratories, South Bend, Ind.), or 50 nM human factor VIIa (BiosPacific, Emeryville, Calif.) react with the substrate (0.20 mM-1 mM) in the presence of inhibitor. Reactions were allowed to go for 30 minutes and the velocities (rate of absorbance change vs time) were measured in the time frame of 25-30 minutes. The following relationship was used to calculate Ki values. [formula] where: vo is the velocity of the control in the absence of inhibitor;
(§5) vs is the velocity in the presence of inhibitor;
(§6) I is the concentration of inhibitor;
(§7) Ki is the dissociation constant of the enzyme: inhibitor complex;
(§8) S is the concentration of substrate;
(§9) Km is the Michaelis constant.

A further experiment addresses T2, human factor Xa (Homo sapiens, UniProt P00742).
T2 construct: purchased Enzyme Research Laboratories, South Bend, Ind
Put plainly: Inhibition of human factor Xa (chromogenic substrate S2222), inhibitory constant Ki. To be noted: S2222, pH 7.5, 30 minutes, read-out: Ki values for inhibition of Serine Proteases: Factor Xa. The method, then:
as §1, §2, §3, §4, §5, §6, §7, §8, §9

The target in a further experiment is T3, human factor VIIa (Homo sapiens, UniProt P08709).
T3 construct: Factor VIIa in the extrinsic pathway; purchased BiosPacific, Emeryville, Calif
T3 sequence (P08709 213-466 limits assumed): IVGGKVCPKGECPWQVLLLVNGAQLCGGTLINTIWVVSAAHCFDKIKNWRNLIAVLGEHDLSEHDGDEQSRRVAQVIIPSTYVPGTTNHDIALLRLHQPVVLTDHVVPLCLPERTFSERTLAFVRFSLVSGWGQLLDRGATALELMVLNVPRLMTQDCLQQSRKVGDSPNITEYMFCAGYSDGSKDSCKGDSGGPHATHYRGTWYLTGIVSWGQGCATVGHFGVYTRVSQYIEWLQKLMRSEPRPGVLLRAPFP
T3 sequence (P08709 61-212 partner limits assumed): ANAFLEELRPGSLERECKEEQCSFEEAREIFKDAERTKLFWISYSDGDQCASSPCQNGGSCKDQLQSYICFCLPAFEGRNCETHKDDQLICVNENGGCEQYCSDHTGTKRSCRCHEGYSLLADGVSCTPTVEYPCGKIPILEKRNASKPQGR
Kind of experiment: Inhibition of human factor VIIa (chromogenic substrate S2288), inhibitory constant Ki. The conditions noted are these: 50 nM human factor VIIa, S2288, pH 7.6, 4 mM CaCl2, 30 minutes; read-out: Ki values for inhibition of Serine Proteases: Factor VIIa. The method, then: as §1, §2, §3, §4, §5, §6, §7, §8, §9

The structures appear in SMILES notation. pKi: −log10 of the molar value.

T2 sequence (P00742 235-488 limits assumed): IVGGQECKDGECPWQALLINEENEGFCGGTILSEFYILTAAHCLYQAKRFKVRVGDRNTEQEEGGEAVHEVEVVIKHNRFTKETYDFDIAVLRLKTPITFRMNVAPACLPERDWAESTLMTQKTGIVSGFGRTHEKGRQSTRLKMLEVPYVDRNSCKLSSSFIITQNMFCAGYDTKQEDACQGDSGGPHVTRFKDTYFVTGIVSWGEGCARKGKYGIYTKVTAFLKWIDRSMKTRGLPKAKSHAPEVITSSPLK
T2 sequence (P00742 41-179 partner limits assumed): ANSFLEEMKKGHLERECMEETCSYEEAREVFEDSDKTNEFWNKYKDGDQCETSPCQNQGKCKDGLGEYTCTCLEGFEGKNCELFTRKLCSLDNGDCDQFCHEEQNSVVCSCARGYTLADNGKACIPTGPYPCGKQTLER

Consider `CC1(C)C2CC3OB([C@H](CCCNC(=N)N)NC(=O)Cn4nc(Cc5ccccc5)nc4Cc4ccccc4)OC3(C)C1C2` (single isomer, unassigned) [Example 967], for which the pKi at human thrombin is over 6.30; at human factor Xa it was 4.30 to 6.30; on human factor VIIa, over 6.30.
On to `CC1(C)C2CC3OB([C@H](CCCNC(=N)N)NC(=O)Cn4nc(-c5cccc([N+](=O)[O-])c5)nc4Cc4ccccc4)OC3(C)C1C2` (single isomer, unassigned) [Example 969], for which the figures for the pKi on human thrombin, at human factor Xa and on human factor VIIa were over 6.30, 4.30 to 6.30 and 4.30 to 6.30, respectively.
For `COCCC[C@H](NC(=O)Cn1nc(CC#N)nc1Cc1ccccc1)B1OC2CC3CC(C3(C)C)C2(C)O1` (single isomer, unassigned) [Example 1352], the pKi is over 6.30 on human thrombin and 4.30 to 6.30 on human factor Xa.
Turning to `CC1(C)C2CC3OB([C@H](CCCCN)NC(=O)Cn4ncnc4CCc4ccccc4)OC3(C)C1C2` (single isomer, unassigned) [Example 1431], the pKi on human thrombin is over 6.30.
`CC1(C)C2CC3OB([C@H](CCCCN)NC(=O)Cn4nc(CO)nc4CCc4ccccc4)OC3(C)C1C2` (single isomer, unassigned) [Example 1459]: the pKi on human thrombin was over 4.30; at human factor Xa it was 4.30 to 6.30; on human factor VIIa, 4.30 to 6.30.
`CC1(C)C2CC3OB([C@H](CCCCN)NC(=O)Cn4nc(CCc5ccccc5)nc4CCc4ccccc4)OC3(C)C1C2` (single isomer, unassigned) [Example 1467]: the pKi is over 6.30 on human thrombin and 4.30 to 6.30 on human factor VIIa.
`CC1(C)C2CC3OB([C@H](CCCCN)NC(=O)Cn4nc(Cc5nn[nH]n5)nc4Cc4ccccc4)OC3(C)C1C2` (single isomer, unassigned) [Example 2067]: the pKi on human thrombin was over 6.30.
On to `CC1(C)C2CC3OB([C@H](CCCCN)NC(=O)Cn4nc(COCc5ccccc5)nc4CCc4ccccc4)OC3(C)C1C2` (single isomer, unassigned) [Example 2068], for which the pKi on human thrombin is over 4.30; at human factor Xa it was 4.30 to 6.30; at human factor VIIa it was 4.30 to 6.30.
Take `CC1(C)C2CC3OB([C@H](CCCCN)NC(=O)Cn4cnc(-c5ccccc5)n4)OC3(C)C1C2` (single isomer, unassigned) [Example 2073]: the pKi on human thrombin is over 6.30; at human factor Xa it was 4.30 to 6.30; at human factor VIIa, 4.30 to 6.30.
As to `Cc1nc(-c2ccccc2)nn1CC(=O)N[C@@H](CCCCN)B1OC2CC3CC(C3(C)C)C2(C)O1` (single isomer, unassigned) [Example 2074], the pKi on human thrombin was over 6.30; at human factor Xa it was 4.30 to 6.30; at human factor VIIa, 4.30 to 6.30.
With `CC1(C)C2CC3OB([C@H](CCCCN)NC(=O)Cn4cnc(Cc5ccccc5)n4)OC3(C)C1C2` (single isomer, unassigned) [Example 2411], the pKi on human thrombin is over 6.30.
For `Cc1nc(Cc2ccccc2)nn1CC(=O)N[C@@H](CCCCN)B1OC2CC3CC(C3(C)C)C2(C)O1` (single isomer, unassigned) [Example 2412], the pKi was over 6.30 at human thrombin, 4.30 to 6.30 at human factor Xa and 4.30 to 6.30 on human factor VIIa.
On to `CCCc1nc(Cc2ccccc2)nn1CC(=O)N[C@@H](CCCCN)B1OC2CC3CC(C3(C)C)C2(C)O1` (single isomer, unassigned) [Example 2414], for which the negative-log Ki (pKi) on human thrombin is over 6.30; at human factor Xa it was 4.30 to 6.30; on human factor VIIa, 4.30 to 6.30.
With `CSCc1nc(Cc2ccccc2)nn1CC(=O)N[C@@H](CCCCN)B1OC2CC3CC(C3(C)C)C2(C)O1` (single isomer, unassigned) [Example 2416], the pKi on human thrombin is over 6.30; on human factor Xa, 4.30 to 6.30; at human factor VIIa, 4.30 to 6.30.
Turning to `CC1(C)C2CC3OB([C@H](CCCCN)NC(=O)Cn4nc(Cc5ccccc5)nc4CC#N)OC3(C)C1C2` (single isomer, unassigned) [Example 2422], the results for the pKi at human thrombin, at human factor Xa and at human factor VIIa were over 6.30, 4.30 to 6.30 and 4.30 to 6.30, respectively.
As to `CC1(C)C2CC3OB([C@H](CCCCN)NC(=O)Cn4nc(Cc5ccccc5)nc4CC(=O)O)OC3(C)C1C2` (single isomer, unassigned) [Example 2430], the pKi on human thrombin is over 4.30; at human factor Xa, 4.30 to 6.30; on human factor VIIa it was under 3.30.
Regarding `CC1(C)C2CC3OB([C@H](CCCCN)NC(=O)Cn4cnc(CCc5ccccc5)n4)OC3(C)C1C2` (single isomer, unassigned) [Example 2752], the pKi on human thrombin is over 6.30.
As for `CC1(C)C2CC3OB([C@H](CCCCN)NC(=O)Cc4nc(Cc5ccccc5)n(Cc5ccccc5)n4)OC3(C)C1C2` (single isomer, unassigned) [Example 3349], the pKi is over 6.30 at human thrombin and 4.30 to 6.30 at human factor Xa.
In the case of `CC(C)(C)OC(=O)Nc1cccc(-c2ccc(C(=O)N[C@@H](CCCNC(=N)N)B3OC4CC5CC(C5(C)C)C4(C)O3)s2)c1` (single isomer, unassigned) [Example 5426], the pKi on human thrombin and at human factor Xa was over 6.30 each time.
Consider `CC(C)(C)OC(=O)Nc1cccc(-c2ccc(C(=O)N[C@@H](CCCNC(=N)N)B3OC4CC5CC(C5(C)C)C4(C)O3)o2)c1` (single isomer, unassigned) [Example 5529], for which the pKi at human thrombin and at human factor Xa was over 6.30 each time.
For the compound `CC1(C)[C@@H]2C[C@H]3OB([C@H](CCCNC(=N)N)NC(=O)c4ccc(-c5ccccc5)cc4)O[C@@]3(C)[C@H]1C2` [Example 1, N^1-(4-Phenylbenzoyl)boroarginine (+)-Pinanediol, Bisulfite], the pKi on human thrombin was over 6.30; on human factor Xa it was 4.30 to 6.30.
For the compound `Cc1cc(-c2ccccc2)ccc1C(=O)N[C@@H](CCCNC(=N)N)B1O[C@@H]2C[C@@H]3C[C@@H](C3(C)C)[C@]2(C)O1` [Example 29], the pKi at human thrombin was over 6.30.
For the compound `Cc1cc(-c2ccccc2)ccc1C(=O)N[C@@H](CCCNC(=N)N)B(O)O` [Example 129], the pKi on human thrombin and on human factor Xa was over 6.30 each time.
In the case of `CC(C)(C)NS(=O)(=O)c1ccccc1-c1ccc(C(=O)N[C@@H](CCCNC(=N)N)B2O[C@@H]3C[C@@H]4C[C@@H](C4(C)C)[C@]3(C)O2)c([N+](=O)[O-])c1` [Example 288], the pKi at human thrombin and at human factor VIIa was over 6.30 in each case.
On to `CC1(C)[C@@H]2C[C@H]3OB([C@H](CCCCN)NC(=O)Cn4ncnc4Cc4ccccc4)O[C@@]3(C)[C@H]1C2` [Example 887], for which the pKi at human thrombin was over 6.30.
As to `CC1(C)[C@@H]2C[C@H]3OB([C@H](CCCCN)NC(=O)Cn4nc(-c5ccccc5)nc4Cc4ccccc4)O[C@@]3(C)[C@H]1C2` [Example 920], the pKi at human thrombin is over 6.30.
On to `NCCCC[C@H](NC(=O)Cn1ncnc1Cc1ccccc1)B(O)O` [Example 977], for which, on human thrombin, the pKi was over 6.30.
In the case of `NCCCC[C@H](NC(=O)Cn1ncnc1CCc1ccccc1)B(O)O` [Example 1521], on human thrombin, the pKi is over 6.30.
In the case of `NCCCC[C@H](NC(=O)Cn1nc(CCc2ccccc2)nc1CCc1ccccc1)B(O)O` [Example 1557], the pKi at human thrombin was over 6.30; on human factor VIIa, 4.30 to 6.30.
For the compound `NCCCC[C@H](NC(=O)Cn1cnc(CCc2ccccc2)n1)B(O)O` [Example 2837], the pKi at human thrombin was over 4.30.
Consider `CC1(C)[C@@H]2C[C@H]3OB([C@H](CCCCN)NC(=O)c4ccc(-c5ccccc5)nc4)O[C@@]3(C)[C@H]1C2` [Example 4064], for which the pKi at human thrombin was over 4.30; at human factor Xa it was 4.30 to 6.30.
For `NCCCC[C@H](NC(=O)c1ccc(-c2ccccc2)nc1)B(O)O` [Example 4065] the same measures were over 4.30 and 4.30 to 6.30.
